Consider 82 compounds from US5585492A, “LTA4 Hydrolase inhibitors” (priority 1994, dated 1996).

Molecules are shown by their SMILES.

The test concerns LTB4 production in human blood. Description: Inhibition of Calcium Ionophore-Induced LTB4 Production in Human Blood (HWB). It counts as cell-based. The note with it: Homo sapiens, human whole blood, A23187 20 mcg/ml; read-out: Inhibition of Calcium Ionophore-Induced LTB4 Production in Human Blood IC50 HWB. As for the experimental part: One or more concentrations of the leukotriene A4 hydrolass inhibitor compounds being tested were prepared (diluted in DMSO) and 2 μl added and gently mixed with the diluted whole blood. After incubating for 15 minutes at 37° C. in a humidified incubator, calcium ionophore A23187 (Sigma Chemical Co., St. Louis, Mo.) was added to a final concentration of 20 mcg/ml and the incubation continued under the same conditions for an additional 10 minutes to allow LTB4 formation. The reaction was terminated by centrifugation (833 g, 10 minutes at 4° C.) and supernatant were analyzed for LTB4 and thromboxane by commercially available enzyme-linked immunoassays (Caymen Chemical Co., Ann Arbor, Mich.) according to the manufacturer's instructions. The IC50 of each test compound was determined from the amount of inhibition of LTB4 production as compared to an essentially identical assay in which no inhibitor compound was present.

Broadly, the IC50 is the concentration that gives 50% inhibition. Consider `NC(=O)CCNC(=O)C1CCN(CCOc2ccc(Cc3ccccc3)cc2)CC1` [Example 421], for which the IC50 was 800 nM.

Turning to `O=C(CCNCCCOc1ccc(Cc2ccccc2)cc1)N1CCOCC1` [Example 424], the IC50 amounted to 850 nM.

`c1ccc(Oc2ccc(OCCn3cnc4ccccc43)cc2)cc1` [Example 344]: the IC50 was 13500 nM.

As to `CNC(=O)CCNCCCOc1ccc(Cc2ccccc2)cc1` [Example 422], the concentration for half-maximal inhibition (IC50) came to 660 nM.

For `O=C(O)[C@@H]1CCCN1CCCOc1ccc(Cc2ccccc2)cc1` [Example 430], the IC50 worked out at 290 nM.

With `c1ccc(Cc2ccc(OCCn3cnc4ccccc43)cc2)cc1` [Example 339], the IC50 is 13100 nM.

On to `CNC(=O)C1CCN(CCOc2ccc(Oc3ccccc3)cc2)CC1` [Example 255], for which the IC50 was 608 nM.

As to `O=C(O)C1C2CN(CCOc3ccc(Cc4ccccc4)cc3)CC21` (stereo not shown) [Example 435], the IC50 was found to be 86 nM.

For `Clc1cccc(Cc2ccc(OCCN3CCCC3)cc2)c1` [Example 143], the half-maximal inhibitory concentration (IC50) stood at 290 nM.

In the case of `NC(=O)C1CCN(CC2Cc3cc(Oc4ccccc4)ccc3O2)CC1` (stereo not shown) [Example 290], the half-inhibitory concentration (IC50) turned out to be 528 nM.

`CC1CC(C#N)CCN1CCOc1ccc(Cc2ccccc2)cc1` (stereo not shown) [Example 444]: the half-inhibitory concentration (IC50) came out at 900 nM.

For the compound `Fc1ccc(Oc2ccc(OCCN3CCCC3)cc2)cc1` [Example 48], the IC50 amounted to 390 nM.

On to `CC1CCC(C)N1CCOc1ccc(Cc2ccccc2)cc1` (stereo not shown) [Example 399], for which the concentration for half-maximal inhibition (IC50) was determined as 220 nM.

In the case of `Cc1ccc(COc2ccc(OCCN3CCCC3)cc2)cc1` [Example 212], the IC50 came to 3280 nM.

On to `c1ccc(Cc2ccc(OCCn3ccc4ncccc43)cc2)cc1` [Example 342], for which the IC50 is 2120 nM.

On to `c1ccc(Cc2ccc(OCCNC3CCCC3)cc2)cc1` [Example 241], for which the half-maximal inhibitory concentration (IC50) is 630 nM.

As for `CCOC(=O)CC1CCN(CCCOc2ccc(Cc3ccccc3)cc2)CC1` [Example 302], the IC50 was 2400 nM.

`CCOC(=O)C1CCN(CC2Cc3cc(Cc4ccccc4)ccc3O2)CC1` (stereo not shown) [Example 282]: the half-inhibitory concentration (IC50) was 1370 nM.

As to `[O-][S+](CCN1CCCC1)c1ccc(Cc2ccccc2)cc1` (stereo not shown) [Example 69], the IC50 amounted to 11800 nM.

In the case of `COc1ccc(COc2ccc(OCCN3CCCC3)cc2)cc1` [Example 213], the IC50 worked out at 4650 nM.

Consider `Oc1ccc(Cc2ccc(OCCN3CCCC3)cc2)cc1` [Example 137], for which the half-maximal inhibitory concentration (IC50) stood at 80 nM.

With `c1ccc(Oc2ccc(OCCn3cnc4ncccc43)cc2)cc1` [Example 348B], the IC50 was determined as 560 nM.

Take `Fc1ccc(Oc2ccc(OCCn3cnc4ncccc43)cc2)cc1` [Example 354B]: the IC50 is 600 nM.

For `c1ccc(COc2ccc(OCCn3cnc4cnccc43)cc2)cc1` [Example 347B], the 50% inhibitory concentration (IC50) came to 5700 nM.

On to `COC(=O)CCN(C)CCCOc1ccc(Cc2ccccc2)cc1` [Example 413], for which the half-inhibitory concentration (IC50) is 42 nM.

Regarding `O=c1[nH]c(C2CCN(CCOc3ccc(Cc4ccccc4)cc3)CC2)no1` [Example 448], the concentration for half-maximal inhibition (IC50) is 825 nM.

As for `C[C@H]1C[C@@H](O)CCN1CCOc1ccc(Cc2ccccc2)cc1` (relative stereo) [Example 465], the IC50 stood at 470 nM.

As to `NC(=O)C1CCN(CC2CCc3cc(Cc4ccccc4)ccc3O2)CC1` (stereo not shown) [Example 293], the IC50 amounted to 3200 nM.

Regarding `COC(=O)C1CN(CCCOc2ccc(Cc3ccccc3)cc2)CCC1=O` (stereo not shown) [Example 262], the concentration for half-maximal inhibition (IC50) amounted to 2480 nM.

Consider `NC(=O)C1CCN(CCOc2ccc(Cc3cccs3)cc2)CC1` [Example 229], for which the IC50 was found to be 220 nM.

Take `Fc1ccccc1COc1ccc(OCCN2CCCC2)cc1` [Example 207]: the IC50 was found to be 640 nM.

`NC(=S)N1CCN(CCOc2ccc(Cc3ccccc3)cc2)CC1` [Example 458]: the half-inhibitory concentration (IC50) amounted to 1390 nM.

Consider `c1ccc(COc2ccc(OCCn3cccc4ncnc3-4)cc2)cc1` [Example 346C], for which the IC50 came out at 6690 nM.

With `NC(=O)C1CCCN(CCOc2ccc(Cc3ccccc3)cc2)C1` (stereo not shown) [Example 243], the half-inhibitory concentration (IC50) is 650 nM.

Consider `O=C(O)C1CCN(CCOc2ccc(Cc3ccccc3)s2)CC1` [Example 371], for which the IC50 worked out at 650 nM.

`C[C@@H]1C[C@H](C(N)=O)C[C@H](C)N1CCOc1ccc(Cc2ccccc2)cc1` [Example 316]: the concentration for half-maximal inhibition (IC50) was determined as 131 nM.

Take `O=C(CCNCCCCOc1ccc(Cc2ccccc2)cc1)OCc1ccccc1` [Example 273]: the concentration for half-maximal inhibition (IC50) worked out at 154 nM.

Turning to `c1ccc(Oc2ccc(NCCN3CCCC3)cc2)cc1` [Example 71], the IC50 worked out at 4260 nM.

Turning to `c1cc(OCCN2CCCC2)ccc1Cc1ccc2c(c1)OCO2` [Example 130], the IC50 was determined as 1010 nM.

As for `c1ccc(Oc2ccc(OCCn3ccc4ncnc-4c3)cc2)cc1` [Example 349C], the concentration for half-maximal inhibition (IC50) worked out at 200 nM.

Turning to `CC(CN1CCCCC1)Oc1ccc(Cc2ccccc2)cc1` (stereo not shown) [Example 403], the half-maximal inhibitory concentration (IC50) came to 3800 nM.

For the compound `O=C(OCc1ccccc1)C1CCCN1CCCOc1ccc(Cc2ccccc2)cc1` (stereo not shown) [Example 258], the IC50 was determined as 1440 nM.

Consider `O=C(CCNCCOc1ccc(Cc2ccccc2)cc1)OCc1ccccc1` [Example 266], for which the concentration for half-maximal inhibition (IC50) came to 2640 nM.

On to `CCOC(=O)CC1CCN(CCOc2ccc(Oc3ccccc3)cc2)CC1` [Example 300], for which the half-maximal inhibitory concentration (IC50) is 2510 nM.

In the case of `Clc1ccccc1COc1ccc(OCCN2CCCC2)cc1` [Example 208], the concentration for half-maximal inhibition (IC50) worked out at 2150 nM.

Take `NC(=O)CCNCCCOc1ccc(Cc2ccccc2)cc1` [Example 423]: the half-inhibitory concentration (IC50) came out at 700 nM.

Regarding `c1ccc(Cc2ccc(OCCCn3cnc4cccnc43)cc2)cc1` [Example 341A], the half-maximal inhibitory concentration (IC50) is 8900 nM.

For `c1ccc(Cc2ccc(OCCCn3cnc4ncccc43)cc2)cc1` [Example 341B], the IC50 amounted to 930 nM.

In the case of `c1ccc(Cc2ccc3c(c2)CC(CN2CCCC2)O3)cc1` (stereo not shown) [Example 280], the IC50 is 21 nM.

In the case of `Fc1ccc(COc2ccc(OCCN3CCCC3)cc2)cc1` [Example 205], the IC50 is 1150 nM.

Consider `COC(=O)C1(O)CCN(CCOc2ccc(Cc3ccccc3)cc2)CC1` [Example 305], for which the 50% inhibitory concentration (IC50) was found to be 1230 nM.

Consider `c1ccc2ncc(Cc3ccc(OCCN4CCCC4)cc3)cc2c1` [Example 132], for which the IC50 was 500 nM.

Take `c1ccc(Cc2ccc3c(c2)CCC(CN2CCCC2)O3)cc1` (stereo not shown) [Example 292]: the 50% inhibitory concentration (IC50) amounted to 52 nM.

`c1ccc(COc2ccc(OCCn3ccc4ncnc-4c3)cc2)cc1` [Example 347C]: the IC50 turned out to be 380 nM.

As for `COC(=O)CCNCCCOc1ccc(Cc2ccccc2)cc1` [Example 267], the IC50 is 580 nM.

Turning to `CC(C)(C)OC(=O)C1CCN(CCCOc2ccc(Cc3ccccc3)cc2)CC1` [Example 263], the IC50 stood at 8760 nM.

As to `Fc1ccc(Oc2ccc(OCCn3ccc4ncnc-4c3)cc2)cc1` [Example 355C], the IC50 amounted to 210 nM.

For `O=C(CCl)NC1CCN(CCOc2ccc(Cc3ccccc3)cc2)C1` (stereo not shown) [Example 454], the IC50 was 610 nM.

In the case of `c1ccc(Cc2ccc3c(c2)CC(Cn2cccc4ncnc2-4)O3)cc1` (stereo not shown) [Example 359C], the IC50 came out at 4200 nM.

On to `CC(C)(O)CCNCCCOc1ccc(Cc2ccccc2)cc1` [Example 416], for which the 50% inhibitory concentration (IC50) turned out to be 1970 nM.

`CCOC(=O)C1C2CN(CCOc3ccc(Cc4ccccc4)cc3)CC21` (stereo not shown) [Example 325]: the IC50 was 2400 nM.

Turning to `CC(=O)N[C@@H]1CCN(CCOc2ccc(Cc3ccccc3)cc2)[C@@H](C)C1` (relative stereo) [Example 467], the half-maximal inhibitory concentration (IC50) is 226 nM.

Consider `CNC(=O)C1CCN(CC2Cc3cc(Oc4ccccc4)ccc3O2)CC1` (stereo not shown) [Example 296], for which the IC50 was 512 nM.

In the case of `NNC(=O)C1CCN(CCOc2ccc(Cc3ccccc3)cc2)CC1` [Example 419], the 50% inhibitory concentration (IC50) stood at 120 nM.

For `c1ccc(Cc2ccc(OCCN3CC4CCC3CC4)cc2)cc1` [Example 500], the concentration for half-maximal inhibition (IC50) stood at 142 nM.

Consider `CC(=O)N1CCN(CC2Cc3cc(Cc4ccccc4)ccc3O2)CC1` (stereo not shown) [Example 294], for which the half-maximal inhibitory concentration (IC50) was found to be 340 nM.

Regarding `CCOC(=O)CCN(CCCOc1ccc(Cc2ccccc2)cc1)Cc1cccnc1` [Example 414], the IC50 was 830 nM.

`FC(F)(F)c1cccc(COc2ccc(OCCN3CCCC3)cc2)c1` [Example 209]: the concentration for half-maximal inhibition (IC50) was 2340 nM.

In the case of `c1ccc(Cc2ccc(OCCCn3cnc4cnccc43)cc2)cc1` [Example 356B], the IC50 was found to be 750 nM.

In the case of `CNC(=O)C1CCN(CC2Cc3cc(Cc4ccccc4)ccc3O2)CC1` (stereo not shown) [Example 295], the IC50 came out at 604 nM.

As for `Fc1ccc(Oc2ccc(OCCn3cnc4cnccc43)cc2)cc1` [Example 355B], the IC50 was 910 nM.

Regarding `CCC(CN1CCCC1)Oc1ccc(Cc2ccccc2)cc1` (stereo not shown) [Example 405], the IC50 worked out at 2010 nM.

As to `NC(=O)C1CCN(CCOc2ccc(Oc3ccccc3)cc2)CC1` [Example 252], the IC50 amounted to 127 nM.

In the case of `c1ccc(Cc2ccc(OCCN3CC4CCC3C4)cc2)cc1` (stereo not shown) [Example 499], the IC50 turned out to be 220 nM.

With `NC(=O)C1(O)CCN(CCOc2ccc(Cc3ccccc3)cc2)CC1` [Example 427], the IC50 was 532 nM.

For the compound `CCOC(=O)C1CCN(CCOc2ccc(Cc3cccc(F)c3)cc2)CC1` [Example 309], the half-maximal inhibitory concentration (IC50) came to 1770 nM.

In the case of `c1csc(COc2ccc(OCCN3CCCC3)cc2)c1` [Example 215], the half-maximal inhibitory concentration (IC50) came out at 190 nM.

In the case of `Clc1cc(OCCN2CCCC2)ccc1Cc1ccccc1` [Example 114], the IC50 was determined as 16000 nM.

`c1ccc(Cc2ccc(OCCCn3cnc4ccncc43)cc2)cc1` [Example 356A]: the IC50 stood at 1280 nM.

For the compound `NCCOc1ccc(Cc2ccccc2)cc1` [Example 496], the half-inhibitory concentration (IC50) was found to be 280 nM.

`CC1CC(C(N)=NO)CCN1CCOc1ccc(Cc2ccccc2)cc1` (stereo not shown) [Example 445]: the half-maximal inhibitory concentration (IC50) came out at 367 nM.

For the compound `c1ccc(Oc2ccc(OCCn3cnc4cnccc43)cc2)cc1` [Example 349B], the IC50 was 320 nM.
